Experimental data reported in patent EP0855181A2 (priority 1997, dated 1998).
Like-named read-outs stand apart in the source and are kept apart here.

Assays:
Human neutrophils (PMN) = system: Human neutrophils (PMN)
Description: Human neutrophils (PMN) are isolated from EDTA-anticoagulated blood by Ficoll-density-centrifugation and by dextran sedimenation as described by Böyum, A. in Scand. J. Clin. Lab. Invest. 21(Suppl. 97):77-89, 1968.Variable concentrations of glycine (4.0 mM, 0.4 mM and 0.04 mM in a volume of 50 µl) and as a control 50 µl PBS are incubated with human neutrophils (2x10^7 cells/ml in a volume of 500 µl in Ca/Mg (1/0.5mM) and 0.25mM luminol) for 20 min at 37°C and stimulation is subsequently carried out with fMLP (N-formyl-methionyl-leucyl-phenylalanine, 10^-5M), NaF (20mM) or PMA (10 ng), each in a volume of 50µl, for 30 min at 37°C. fMLP is a receptor-mediated stimulus, NaF is a G-protein-mediated activator of cells and PMA activates the protein kinase C. As a control neutrophils are incubated with the variable glycine concentrations without subsequent stimulation. Respiratory burst is measured by chemiluminescence response of oxygen radicals essentially as described in Immunology, 1992, 76, 86-94.

Neutrophils (PMNs) = system: Neutrophils (PMNs)
Description: Neutrophils (PMNs, isolated as described in example 2, in a concentration of 2x10^7/ml in a volume of 500µl + 50 µl 1mM Ca/0.5mM Mg) are preincubated with glycine (0.0004mM, 0.004mM, 0.04mM, 0.4mM and 4mM in a volume of 50µl) for 20 or 30 minutes at 37°C. Subsequently they are treated with cytochalasin (50 µl, 10^-5M) and stimulated with 50 µl fMLP (10^-5M), NaF (20mM), or primed with 50µl GM-CSF (10ng) and subsequently stimulated with 50µl NaF (20mM), fMLP (10^-5M) or Ca-ionophore (5µM) and incubated for a further 20 minutes at 37°C. Leukotrienes are measured by HPLC as described in Immunology 67:401-407.

[1] = system: Peripheral mononuclear cells
Description: Peripheral mononuclear cells (as in example 2 but in a concentration of 10^6/ml) are pre-incubated with SEB at variable concentrations (50 µl of 1 ng/ml, 0,1 ng/ml and 0.01 ng/ml) in the presence of variable concentrations of glycine (as above) for 24h, 48h and 72h or pre-incubated with glycine and subsequently stimulated with different concentrations of SEB.

[2] = system: Peripheral mononuclear cells; settings: glycine 0.00004-40 mM, 14 days, interleukin-4 and anti-CD40
Description: To this end, peripheral mononuclear cells (as in example 1) were incubated with variable concentrations of glycine (0.00004mM, 0.0004mM, 0.004mM, 0.04mM, 0.4mM, 4mM, 40mM). The incubation time is carried out over 14 days. The cells were stimulated in the presence of glycine with interleukin-4 and anti-CD40 as B-cell activator. In the supernatant, the IgM, IgA, IgG and IgE synthesis was analysed.

[3] = system: superantigen primed neutrophils
[4] = system: Peripheral mononuclear cells (PMNs)
[5] = system: Peripheral mononuclear cells (PMNs); remark: listed apart in the source
[6] = system: lymphocytes, monocytes, basophils (LMBs)
[7] = system: lymphocytes, monocytes, basophils (LMBs); remark: listed apart in the source
[8] = cells primed with GM-CSF, variable glycine, then NaF
[9] = glycine pre-incubation over 30 minutes

Compound: NCC(=O)O [glycine]
- respiratory burst (Human neutrophils (PMN); glycine 0.04 mM, then fMLP): further modulation
- oxygen metabolites (respiratory burst) (Human neutrophils (PMN); glycine 4.0, 0.4, 0.04 mM, 20 min at 37°C, no subsequent stimulation): no effect
- respiratory burst (Human neutrophils (PMN); glycine pre-incubation, then NaF (20mM)): dose-dependent suppression and also an increase
- respiratory burst (Human neutrophils (PMN); glycine pre-incubation, then PMA (10 ng)): No changes
- LTB4 generation (Neutrophils (PMNs); [8]): inhibition
- LTC4 generation (Neutrophils (PMNs); [8]): inhibition
- LTB4 generation (Neutrophils (PMNs); cells primed with GM-CSF, variable glycine, then calcium ionophore): marginal increase
- LTB4 release (Neutrophils (PMNs); cells primed with GM-CSF, variable glycine, then fMLP): fluctuating
- fMLP-induced LTE4 generation (Neutrophils (PMNs); glycine 4.0 mM): suppressing influence
- LTB4 release (Neutrophils (PMNs); [9]): increase
- LTC4 release (Neutrophils (PMNs); [9]): suppression
- omega-LTB4 release (Neutrophils (PMNs); [9]): increase
- leukotriene-E4 (Neutrophils (PMNs); neutrophils activated with calcium ionophore in the presence of glycine): very strong suppression
- LTB4 generation (Neutrophils (PMNs); neutrophils in the presence of glycine, fMLP): suppression
- interferon-γ release ([1]; 48 hours glycine pre-incubation, subsequent RSV stimulation): intense increase
- interferon-γ release ([1]; 48 hours glycine pre-incubation, subsequent SEB stimulation (Fig. 2), refers to intense increase): similarly indicated
- interferon-γ release ([1]; RSV used instead of SEB): dose-dependent increase
- interferon-γ release ([1]; SEB with glycine, incubation of up to 48 hours): Marginal effects
- interferon-γ release ([1]; glycine pre-incubation over 72 hours, SEB as activator): increase
- release of interferon-γ ([1]; glycine pre-incubation, subsequent SEB stimulation): extremely potent release
- interferon-γ concentration ([1]; very long glycine pre-incubation and subsequent stimulation): reduction
- induced IgE synthesis [2]: no affect
- other immunoglobulins (IgM, IgA, IgG synthesis) [2]: no changes
- 20-carboxy-LTB4 [3]: drop
- LTC4 [3]: increase
- cysteinyl leukotrienes [3]: increase
- omega-LTB4 generation [3]: increase
- release of 12-HETE [3]: increase
- IL-8 release [4]: significant increase
- interleukin-8 release ([4]; cells pre-incubated with interferon-γ, then staphylococcus enterotoxin B): dose-dependent stimulation
- interleukin-8 release ([4]; staphylococcus enterotoxin B stimulation): marginal increase
- TNF release ([5]; GM-CSF (10 ng) primed model, then SEB (10 ng)): suppression
- TNF release ([5]; RSV as stimulus): modulation
- TNF release ([5]; conditions of the interleukin-8 experiments): no significant changes
- TNF ([5]; glycine 0.0004-0.4 mM pre-incubation, then SEB (10 ng)): dose-dependent increase
- SEB-induced TNF release ([5]; glycine pre-incubation, then SEB): increase
- TNF release ([5]; glycine pre-incubation, then SEB, in dependence on stimulus): suppression
- TNF release ([5]; phospholipase C at variable concentrations as stimulus, 'also applies' refers to modulation): This also applies
- interleukin-10 [6]: increase
- release of interleukin-10 ([6]; glycine combined with staphylococcus enterotoxin B (Fig. 1)): significant release
- SEB-induced TNF-α release [7]: marked suppression
- TNF-α [7]: increase
- phospholipase C induced TNF-α release [7]: great suppression
- suppression of the TNF-α release [7]: lower
- staphylococcus enterotoxin B induced TNF-α release ([7]; LMBs incubated with interferon-γ 24 hours, then SEB): great suppression
- interleukin-12 release (LMBs; GM-CSF priming, glycine 2 hours, then SEB, eliminated with low glycine concentrations): marginal reduction
- interleukin-12 release (LMBs; glycine incubation alone, low concentrations of glycine): stimulatory effect
